One test concerns the target T1, SCARB1 (Homo sapiens, UniProt Q8WTV0).
T1 construct: purchased Hölzel Biotech SC1-H82E5
T1 sequence (Q8WTV0 1-552): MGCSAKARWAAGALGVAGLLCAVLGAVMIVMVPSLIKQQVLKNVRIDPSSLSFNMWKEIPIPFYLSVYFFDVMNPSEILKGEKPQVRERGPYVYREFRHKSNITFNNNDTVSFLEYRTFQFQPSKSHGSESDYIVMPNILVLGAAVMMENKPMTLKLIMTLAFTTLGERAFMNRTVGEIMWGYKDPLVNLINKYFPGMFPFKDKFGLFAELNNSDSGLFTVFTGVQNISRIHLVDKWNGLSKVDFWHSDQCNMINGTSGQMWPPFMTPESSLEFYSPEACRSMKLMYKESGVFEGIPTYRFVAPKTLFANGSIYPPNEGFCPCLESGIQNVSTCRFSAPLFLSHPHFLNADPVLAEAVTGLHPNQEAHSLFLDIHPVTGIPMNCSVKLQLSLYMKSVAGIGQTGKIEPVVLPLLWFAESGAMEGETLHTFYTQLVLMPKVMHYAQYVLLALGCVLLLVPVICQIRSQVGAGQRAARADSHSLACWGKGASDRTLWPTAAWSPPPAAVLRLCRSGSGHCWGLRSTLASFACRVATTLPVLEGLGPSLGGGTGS
The experiment in a line: Microscale thermophoresis (MST) binding. The conditions noted are these: aggregation/precipitation at high compound concentrations. How it is done:
reaction was terminated by addition of 800 μL EtOAc+0.5% AcOH, 300 μL H2O and 100 μL internal standard (13,14-dihydro-15-ketoprostaglandin -d4, 300 pmol/sample, Cayman Chemical, Ann Arbor, USA, Cat# 10010606). Of the organic phase 600 μL was transferred into a fresh Eppendorf tube and the solvent removed in a SpeedVac. The residue was dissolved in 100 μL acetonitrile/ H2O (1:1) and measured with LC-MS/MS. Gradient: Solvent A = H2O + 0.1% formic acid, solvent B = acetonitrile + 0.5% formic acid, flow rate = 0 .4 mL/min, run length 6 min, gradient = 0 min 30% B, 1 min 30% B, 2 min 31.5% B, 2.1 min 95% B, 4 min 95% B, 4.1 min 30% B, 6 min 30% B. MS settings: Capillary = 3.0 kV, sampling cone = […], extraction cone […], source temperature = 100 °C, desolvat ion temperature = 350 °C, cone gas flow = 50.0 L/h, desolvation gas flow = 650.0 L/h, scan time = 0.250 s, inter-scan time = 0.020 s, mass range = 100 -800 Da. Masses of 15 -ketoprostaglandin (349.2 Da, collision energy = 21.0 eV), 13,14 -dihydro-15-ketoprostaglandin (351.2 Da, collision energy = 18.0 eV) and 13,14-dihydro-15-ketoprostaglandin (355.2 Da, collision energy = 10.0 eV) were set for MRM. The areas under the curve (AUC) were used to quantify 15 -keto-PGE2 and 13,14 -dihydro-15-keto-PGE2 levels by determining peak areas in relation to internal standard […]. The experiment was […]
Microscale thermophoresis (MST) was performed as follows: Monolith His -Tag Labeling Kit RED -tris-NTA 2nd Generation (NanoTemper Technologies, Munich, Germany, Cat# MO -L018) was used for KD determination as recommended by the purchaser. Briefly, SCARB1 ( Hölzel Biotech, Cologne, Germany, Cat# SC1-H82E5) concentration (50 nM) was adjusted in assay buffer and labelled by the RED -tris-NTA dye (100 nM). This mixture was added to compound dilution series (c = 1 mM to 30 nM) and measured using Monolith NT.115 (NanoTemper Technologies, Munich, Germany ). The experiment was performed once and analysed with the MO Affinity Analysis software (NanoTemper).
NUDT1 target validation efforts:
Recombinant NUDT1 expression & purification […]
Background: Microscale thermophoresis detects binding through changes in fluorescence in a small temperature gradient.

Test [1] concerns IDH2 mRNA in PDL-hTERT cells. Nature of the test: Quantitative PCR of IDH2 mRNA. The arrangement: dose or concentration left out as unconfirmed. The conditions noted are these: […] µM, GAPDH housekeeper. The test is classed as cell-based, human.

In the case of `O=C(O)c1cn(C2CC2)c2cc(N3CCNCC3)c(F)cc2c1=O` [Ciprofloxacin], on SCARB1, the “binding to SCARB1” value is recorded as “no binding affinity could be determined”. In addition, in test [1], the “IDH2 mRNA levels versus vehicle control” value is listed as “not significantly changed”.

Values taken from article PMC12036814 (Angewandte Chemie (International Ed. in English), 2025).
